Results reported in paper PMC7349657, “Efficient Targeted Degradation via Reversible and Irreversible Covalent PROTACs” (Journal of the American Chemical Society, 2020).

Assays:
wild-type BTK = wild-type BTK (Homo sapiens, UniProt Q06187); experiment: In vitro kinase activity assay, wild-type BTK (Nanosyn)
BTK [1] = target: T1, BTK (Homo sapiens, UniProt Q06187); experiment: BTK degradation in Mino cells, dose-response Western blot; format: cell-based; design: endogenous in cells; host or cells: Mino (ATCC CRL-3000), Ramos (ATCC CRL-1596), K562 (NCI-60); details: MINO, 24 h, read-out: Dmax (maximal degradation)
Experimental: We evaluated the ability of the compounds to induce degradation of BTK in human cell lines. We incubated Mino cells with the compounds and followed BTK levels after 24 h by Western blot (Figure 2, Supporting Figure 2). […] The irreversible acrylamides IR-1 and IR-2 and the cyanoacrylamide RC-3 followed closely with DC50’s under 10 nM and Dmax near 90%. […] We conducted metabolomics studies to estimate if cellular penetration and stability may contribute to the relative potencies (Supporting Table 2). NC-1 and RC-3 reached an effective concentration that was ∼2 times higher than IR-2 and ∼10 times higher than RC-2. Therefore, the lower potency of RC-2 can at least in part be explained by lower permeability or stability.
Figure 2 Efficient BTK degradation in cells. (A) Western blot evaluation of BTK levels in Mino cells in response to various concentrations of RC-2, IR-2, NC-1, and RC-3, after 24 h of incubation. (B) Quantification of BTK levels in (A) by normalization to the β-actin house-keeping gene in Mino cells. DC50 and Dmax were calculated by fitting the data to a second-order polynomial using Prism software. (C) Summary of the DC50 and Dmax values for the PROTACs in Mino cells described in (A) and Supporting Figure 2. TEXT PRINTED IN THE PICTURE: (C) NC-1: DC50 (nM): 2.2; Dmax (%): 97 | (C) IR-1: DC50 (nM): 8.6; Dmax (%): 91 | (C) IR-2: DC50 (nM): 1.9; Dmax (%): 88 | (C) RC-1: DC50 (nM): 10; Dmax (%): 68 | (C) RC-2: DC50 (nM): 35; Dmax (%): 66 | (C) RC-3: DC50 (nM): 6; Dmax (%): 85
(§1) Ramos (ATCC, CRL-1596), Mino (ATCC, CRL-3000), or K562 (NCI-60) cell lines were counted and diluted to 10^6 cell/mL, using 1 mL per well in a 24-well plate, and U2OS (ATCC HTB-96) cells overexpressing human BTK WT or C481S mutant were grown using 2 mL in a six-well plate (see Supporting Information). Cells were incubated with 1% DMSO or compound in indicated concentrations for 24 h unless indicated differently, or cells were left untreated. Lysates were prepared as previously described,[29] and samples were measured for total protein quantification by bicinchoninic acid (BCA) assay (#23225 ThermoFisher Scientific) supplemented with 4× loading buffer including 20 mM DTT, heated to 70 °C for 10 min, loaded into 4% SDS-PAGE gel, run for 45 min at 140 mV, then transferred into a nitrocellulose membrane (Biorad) using a Trans-Blot Turbo transfer system (Biorad). The membrane was stained with Ponceau (Sigma) to validate transfer for 10 min in gentle agitation then destained for 1 h with MQ water. The membrane was blocked with Licor blocking buffer (LIC927-70001) for 1 h, washed three times for 5 min with TBS-T, incubated with primary antibody BTK (D3H5) rabbit mAb (CST; 8547 S) overnight (16 h) at 4 °C, washed three times for 5 min with TBS-T, and incubated with primary antibody against β-actin (CST; 3700) for 1 h at 25 °C. Membrane was washed three times for 5 min with TBS-T, incubated with fluorescent secondary antibodies anti-mouse IgG Alexa Fluor 647 (CST: 4410S) and anti-rabbit-IgG IRDye 800(LICOR: 926-32211) for 1 h, then washed three times for 5 min with TBS-T, dried, and immediately imaged and analyzed using Licor Odyssey CLx. Prism (GraphPad) software was used to calculate degradation levels. We used second-order polynomial fits to estimate DC50 and Dmax values.

BTK [2] = target: T1, BTK; experiment: Library screen of BTK abundance by Western blot in K562 or Mino cells; format: cell-based; design: endogenous in cells; host or cells: Mino (ATCC CRL-3000), Ramos (ATCC CRL-1596), K562 (NCI-60); details: 1 μM compound, 24 h
Experimental: We incubated K562 or Mino cells with 1 μM of the compounds for 24 h and measured the abundance of BTK by Western blot (Supporting Figure 1). […] On the basis of compound RC-1 we synthesized additional compounds (Figure 1), RC-2 with a CH2 group replacing the oxygen nearest the β-carbon, their analogous acrylamides IR-1 and IR-2, and the noncovalent analogue NC-1. We also synthesized the cyanoacrylamide RC-3 (Figure 1), replacing the Cα hydrogens with methyl groups. Similar dimethylated cyanoacrylamides were reported to have improved cellular permeability.[34]
Ramos (ATCC, CRL-1596), Mino (ATCC, CRL-3000), or K562 (NCI-60) cell lines were counted and diluted to 10^6 cell/mL, using 1 mL per well in a 24-well plate, and U2OS (ATCC HTB-96) cells overexpressing human BTK WT or C481S mutant were grown using 2 mL in a six-well plate (see Supporting Information). […] Lysates were prepared as previously described,[29] and samples were measured for total protein quantification by bicinchoninic acid (BCA) assay (#23225 ThermoFisher Scientific) supplemented with 4× loading buffer including 20 mM DTT, heated to 70 °C for 10 min, loaded into 4% SDS-PAGE gel, run for 45 min at 140 mV, then transferred into a nitrocellulose membrane (Biorad) using a Trans-Blot Turbo transfer system (Biorad). […]

BTK [3] = target: T1, BTK; experiment: Time course of BTK degradation in Ramos and Mino cells; format: cell-based; design: endogenous in cells; host or cells: Mino (ATCC CRL-3000), Ramos (ATCC CRL-1596), K562 (NCI-60); details: 100 nM PROTAC, Ramos cells (RC-3: Mino cells)
Experimental: We followed the rate of BTK degradation facilitated by this compound series via a time course experiment in Ramos and Mino cells (Supporting Figure 3). The rates of degradation correlated well with the DC50 values observed after 24 h, with NC-1, IR-1, IR-2, and RC-3 degrading BTK within 2–4 h, while RC-2 and RC-1 required 6–24 h to reach maximum degradation.
as §1
Supplementary Figure 3: BTK degradation time dependency.
Ramos (PI3I, RC-1, I R-1, R C-2, I R-2, NC-1) or Mino ( RC-3) cells were treated with 100 nM of PROTAC or DMSO for indicated times, subsequently harvested for BTK levels measurement via western blot.
(1 picture or pasted object on this page, not shown here)

BTK [4] = target: T1, BTK; experiment: Mechanism validation: pretreatment with ibrutinib, thalidomide-OH or bortezomib before PROTAC in Mino cells; format: cell-based; design: endogenous in cells; host or cells: Mino (ATCC CRL-3000), Ramos (ATCC CRL-1596), K562 (NCI-60)

T1 sequence (Q06187 whole entry): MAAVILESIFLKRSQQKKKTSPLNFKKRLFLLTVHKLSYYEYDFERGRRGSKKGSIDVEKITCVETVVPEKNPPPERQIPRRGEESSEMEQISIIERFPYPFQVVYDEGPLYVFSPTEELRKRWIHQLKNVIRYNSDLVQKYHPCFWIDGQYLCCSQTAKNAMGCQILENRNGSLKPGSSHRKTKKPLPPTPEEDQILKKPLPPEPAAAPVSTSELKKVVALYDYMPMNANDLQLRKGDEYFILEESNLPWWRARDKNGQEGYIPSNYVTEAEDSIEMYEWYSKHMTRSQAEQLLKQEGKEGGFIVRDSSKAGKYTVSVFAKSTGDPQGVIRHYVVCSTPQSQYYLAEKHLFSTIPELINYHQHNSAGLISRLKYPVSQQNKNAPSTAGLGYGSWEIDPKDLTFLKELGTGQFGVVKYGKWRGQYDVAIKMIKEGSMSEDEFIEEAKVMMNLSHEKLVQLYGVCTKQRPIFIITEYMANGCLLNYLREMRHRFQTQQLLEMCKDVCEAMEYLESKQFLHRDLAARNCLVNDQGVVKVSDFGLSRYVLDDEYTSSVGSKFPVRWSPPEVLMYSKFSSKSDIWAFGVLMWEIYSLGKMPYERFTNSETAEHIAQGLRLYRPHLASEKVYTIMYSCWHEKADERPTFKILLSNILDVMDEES
Sequence of wild-type BTK (Q06187 whole entry, species assumed): as the sequence (Q06187 whole entry) above

How did the IC50 (wild-type BTK) turn out when `N#CC(=CCOCCOCCOCCOCCOCCOc1cccc2c1C(=O)N(C1CCC(=O)NC1=O)C2=O)C(=O)N1CCCC(n2nc(-c3ccc(Oc4ccccc4)cc3)c3c(N)ncnc32)C1` (stereo not drawn) [RC-1] was run?
The IC50 was 12 nM.

What about the Dmax (BTK [1]) of the same compound?
The Dmax was 68%.

And the “BTK degradation (abundance of BTK by Western blot)” value (BTK [2])?
The value was “consistent prominent levels of degradation in both cell lines”.

What about the “time to degrade BTK / reach maximum degradation” value (BTK [3]) of the same compound?
Its value is 6 to 24 h.

`CC(C)C[C@H](NC(=O)[C@H](Cc1ccccc1)NC(=O)c1cnccn1)B(O)O` [bortezomib] was tested. Which “effect of proteasome inhibitor on PROTAC-mediated BTK degradation” value (BTK [4]; 1 h bortezomib, then PROTAC 4 h) did it give?
The value was “significantly inhibited degradation”.

Which “effect of pretreatment on PROTAC-mediated BTK degradation” value (BTK [4]; 2 h pretreatment, then PROTAC 24 h) does the source give for `O=C1CCC(N2C(=O)c3cccc(O)c3C2=O)C(=O)N1` (stereo not drawn) [thalidomide-OH] here?
The value was “hindered BTK degradation”.
